The text below walks through data of patent publication US12139520B2 (priority 2020, dated 2024).

The structures appear in SMILES notation. Bridge positions count the residues as written; N and C are the ends. Square brackets hold non-standard residues; d marks the D form. Peptide text beside a SMILES is read from it. Hyp = O=C(O)[C@@H]1C[C@@H](O)CN1

One data set has as its target T1, hAMY3 receptor (Homo sapiens, UniProt O60896+P30988).
T1 sequence (P30988 25-474): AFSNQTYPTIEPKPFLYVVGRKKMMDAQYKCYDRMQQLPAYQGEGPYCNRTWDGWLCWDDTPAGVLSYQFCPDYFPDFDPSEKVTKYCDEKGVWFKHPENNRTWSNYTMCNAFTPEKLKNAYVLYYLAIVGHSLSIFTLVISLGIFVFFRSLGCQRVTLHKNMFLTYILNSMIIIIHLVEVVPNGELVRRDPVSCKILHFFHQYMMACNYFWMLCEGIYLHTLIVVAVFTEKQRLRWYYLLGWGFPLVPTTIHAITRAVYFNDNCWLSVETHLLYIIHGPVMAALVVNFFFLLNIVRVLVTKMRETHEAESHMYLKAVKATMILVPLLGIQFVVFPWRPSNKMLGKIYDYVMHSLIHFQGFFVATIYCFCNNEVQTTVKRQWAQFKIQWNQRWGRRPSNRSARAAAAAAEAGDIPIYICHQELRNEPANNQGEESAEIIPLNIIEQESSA
T1 sequence (O60896 24-148 partner): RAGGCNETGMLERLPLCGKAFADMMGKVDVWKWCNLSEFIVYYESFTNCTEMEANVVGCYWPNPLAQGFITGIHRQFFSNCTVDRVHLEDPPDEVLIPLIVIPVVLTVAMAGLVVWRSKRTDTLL
Kind of data set: cAMP assay for in vitro receptor activation, hAMY3-R. The format is cell-based. Particulars: cAMP assay, hAMY3 receptor; read-out: hAMY3R EC50. In outline:
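Read-out is TR-FRET cAMP signal, recorded one hour after reagent addition, following 30 min room-temperature stimulation of stable hAMY3 cells with graded compound doses in casein/IBMX (0.5 mM) buffer.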
For orientation: Cyclic AMP is a second messenger, typically raised through Gs and lowered through Gi signalling.

A short description of data set [1]: Physical stability of peptide analogues (Thioflavin T fibrillation). The format is physicochemical. Conditions: maximum ThT signal normalized between hAMY maximum and buffer background; 40° C., shaking, four days; pH 7 per table title. The essentials:
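ThT fluorescence (450 nm excitation, 480 nm emission; 4 μM dye) was read every 10 min over four days at 40° C under 700 rpm shaking stress, after 1 h in pH 4 acetate or pH 7 phosphate (50 mM). Peak smoothed signal expressed as percent, scaled between buffer background and hAMY maximum.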

Broadly, the EC50 is the concentration giving half of the maximal effect. With `CC[C@H](C)[C@H](NC(=O)[C@H](CCC(N)=O)NC(=O)[C@H](Cc1c[nH]cn1)NC(=O)[C@H](C)NC(=O)[C@H](CC(C)C)NC(=O)[C@H](CCCNC(=N)N)NC(=O)[C@H](CCC(N)=O)NC(=O)[C@@H](NC(=O)[C@@H](NC(=O)[C@@H]1CSSC[C@H](NC(=O)CN)C(=O)N[C@@H](CCCNC(=N)N)C(=O)N[C@@H](Cc2ccccc2)C(=O)NCC(=O)N[C@@H]([C@@H](C)O)C(=O)N1)[C@@H](C)O)C(C)C)C(=O)N[C@@H](Cc1ccc(O)cc1)C(=O)N[C@@H](CCC(N)=O)C(=O)N[C@@H](Cc1ccccc1)C(=O)N[C@H](C(=O)N[C@@H](CC(=O)O)C(=O)N[C@@H](CCCCN)C(=O)N[C@@H](CC(=O)O)C(=O)N[C@@H](CCCCN)C(=O)N[C@@H](CC(=O)O)C(=O)N[C@@H](CC(N)=O)C(=O)N[C@H](C(=O)N[C@@H](C)C(=O)N1CCC[C@H]1C(=O)N[C@@H](CCCNC(=N)N)C(=O)N[C@H](C(=O)N[C@@H](CC(N)=O)C(=O)N[C@H](C(=O)N[C@@H](CO)C(=O)N1CCC[C@H]1C(=O)N[C@@H](CCC(N)=O)C(=O)NCC(=O)N[C@@H](Cc1ccc(O)cc1)C(N)=O)C(C)C)[C@@H](C)O)C(C)C)[C@@H](C)O` [compound 116] (H-GCRFGTCTVQRLAHQIYQFTDKDKDNVAPRTNVSPQGY-NH2; disulfide 2-7; N-terminus assumed), the EC50 at hAMY3 receptor turned out to be 24 pM. Further, in data set [1], the “Max ThT signal (%)” value was determined as 11.700%.

Turning to `CC[C@H](C)[C@H](NC(=O)[C@H](CC(N)=O)NC(=O)[C@@H](NC(=O)[C@H](CCCNC(=N)N)NC(=O)[C@@H]1CCCN1C(=O)[C@H](C)NC(=O)[C@@H](NC(=O)[C@H](CC(N)=O)NC(=O)[C@H](CC(=O)O)NC(=O)[C@H](CCCCN)NC(=O)[C@H](CC(=O)O)NC(=O)[C@H](CCCCN)NC(=O)[C@H](CC(=O)O)NC(=O)[C@@H](NC(=O)[C@H](Cc1ccccc1)NC(=O)[C@H](CCC(N)=O)NC(=O)[C@H](Cc1ccc(O)cc1)NC(=O)[C@@H](NC(=O)[C@H](CCC(N)=O)NC(=O)[C@H](Cc1c[nH]cn1)NC(=O)[C@H](C)NC(=O)[C@H](CC(C)C)NC(=O)[C@H](CCCNC(=N)N)NC(=O)[C@H](CCC(N)=O)NC(=O)[C@@H](NC(=O)[C@@H](NC(=O)[C@@H]1CSSC[C@H](NC(=O)CN)C(=O)N[C@@H](CCCNC(=N)N)C(=O)N[C@@H]([C@@H](C)O)C(=O)NCC(=O)N[C@@H]([C@@H](C)O)C(=O)N1)[C@@H](C)O)C(C)C)[C@@H](C)CC)[C@@H](C)O)C(C)C)[C@@H](C)O)C(=O)NCC(=O)N1CCC[C@H]1C(=O)N[C@@H](CCC(N)=O)C(=O)NCC(=O)N1C[C@H](O)C[C@H]1C(N)=O` [compound 118] (H-GCRTGTCTVQRLAHQIYQFTDKDKDNVAPRTNIGPQG[Hyp]-NH2; disulfide 2-7; N-terminus assumed), the EC50 at hAMY3 receptor was determined as 24 pM. The “Max ThT signal (%)” value in data set [1] amounted to 7.400%.

In the case of `CC[C@H](C)[C@H](NC(=O)[C@H](CCC(N)=O)NC(=O)[C@H](Cc1c[nH]cn1)NC(=O)[C@H](C)NC(=O)[C@H](CC(C)C)NC(=O)[C@H](CCCNC(=N)N)NC(=O)[C@H](CCC(N)=O)NC(=O)[C@@H](NC(=O)[C@@H](NC(=O)[C@@H]1CSSC[C@H](NC(=O)CN)C(=O)N[C@@H](CCCNC(=N)N)C(=O)N[C@@H]([C@@H](C)O)C(=O)NCC(=O)N[C@@H]([C@@H](C)O)C(=O)N1)[C@@H](C)O)C(C)C)C(=O)N[C@@H](Cc1ccc(O)cc1)C(=O)N[C@@H](CCC(N)=O)C(=O)N[C@@H](Cc1ccccc1)C(=O)N[C@H](C(=O)N[C@@H](CC(=O)O)C(=O)N[C@@H](CCCCN)C(=O)N[C@@H](CC(=O)O)C(=O)N[C@@H](CCCCN)C(=O)N[C@@H](CC(=O)O)C(=O)N[C@@H](CC(N)=O)C(=O)N[C@H](C(=O)N[C@@H](C)C(=O)N1CCC[C@H]1C(=O)N[C@@H](CCCNC(=N)N)C(=O)N[C@@H](CO)C(=O)N[C@@H](CC(N)=O)C(=O)N[C@H](C(=O)NCC(=O)N1CCC[C@H]1C(=O)N[C@@H](CCC(N)=O)C(=O)NCC(=O)N1C[C@H](O)C[C@H]1C(N)=O)C(C)C)C(C)C)[C@@H](C)O` [compound 121] (H-GCRTGTCTVQRLAHQIYQFTDKDKDNVAPRSNVGPQG[Hyp]-NH2; disulfide 2-7; N-terminus assumed), the EC50 on hAMY3 receptor is 26 pM. In addition, the “Max ThT signal (%)” value in data set [1] was 1.800%.

Consider `CC[C@H](C)[C@H](NC(=O)[C@H](CCC(N)=O)NC(=O)[C@H](Cc1c[nH]cn1)NC(=O)[C@H](C)NC(=O)[C@H](CC(C)C)NC(=O)[C@H](CCCNC(=N)N)NC(=O)[C@H](CCC(N)=O)NC(=O)[C@@H](NC(=O)[C@@H](NC(=O)[C@@H]1CSSC[C@H](NC(=O)CN)C(=O)N[C@@H](CCCNC(=N)N)C(=O)N[C@@H](Cc2ccccc2)C(=O)NCC(=O)N[C@@H]([C@@H](C)O)C(=O)N1)[C@@H](C)O)C(C)C)C(=O)N[C@@H](Cc1ccc(O)cc1)C(=O)N[C@@H](CCC(N)=O)C(=O)N[C@@H](Cc1ccccc1)C(=O)N[C@H](C(=O)N[C@@H](CC(=O)O)C(=O)N[C@@H](CCCCN)C(=O)N[C@@H](CC(=O)O)C(=O)N[C@@H](CCCCN)C(=O)N[C@@H](CC(=O)O)C(=O)N[C@@H](CC(N)=O)C(=O)N[C@H](C(=O)N[C@@H](C)C(=O)N1CCC[C@H]1C(=O)N[C@@H](CCCNC(=N)N)C(=O)N[C@H](C(=O)N[C@@H](CC(N)=O)C(=O)N[C@H](C(=O)N[C@@H](CO)C(=O)N1CCC[C@H]1C(=O)N[C@@H](CCC(N)=O)C(=O)NCC(=O)N1C[C@H](O)C[C@H]1C(N)=O)C(C)C)[C@@H](C)O)C(C)C)[C@@H](C)O` [compound 125] (H-GCRFGTCTVQRLAHQIYQFTDKDKDNVAPRTNVSPQG[Hyp]-NH2; disulfide 2-7; N-terminus assumed), for which the EC50 on hAMY3 receptor was found to be 27 pM. Besides, the “Max ThT signal (%)” value in data set [1] is on record as 7.200%.

For the molecule `CC[C@H](C)[C@H](NC(=O)[C@H](CCC(N)=O)NC(=O)[C@H](Cc1c[nH]cn1)NC(=O)[C@H](C)NC(=O)[C@H](CC(C)C)NC(=O)[C@H](CCCNC(=N)N)NC(=O)[C@H](CCC(N)=O)NC(=O)[C@@H](NC(=O)[C@@H](NC(=O)[C@@H]1CSSC[C@H](NC(=O)CN)C(=O)N[C@@H](CCCNC(=N)N)C(=O)N[C@@H]([C@@H](C)O)C(=O)NCC(=O)N[C@@H]([C@@H](C)O)C(=O)N1)[C@@H](C)O)C(C)C)C(=O)N[C@@H](Cc1ccc(O)cc1)C(=O)N[C@@H](CCC(N)=O)C(=O)N[C@@H](Cc1ccccc1)C(=O)N[C@H](C(=O)N[C@@H](CC(=O)O)C(=O)N[C@@H](CCCCN)C(=O)N[C@@H](CC(=O)O)C(=O)N[C@@H](CCCCN)C(=O)N[C@@H](CC(=O)O)C(=O)N[C@@H](CC(N)=O)C(=O)N[C@H](C(=O)N[C@@H](C)C(=O)N1CCC[C@H]1C(=O)N[C@@H](CCCNC(=N)N)C(=O)N[C@@H](CO)C(=O)N[C@@H](CCCCN)C(=O)N[C@H](C(=O)NCC(=O)N1CCC[C@H]1C(=O)N[C@@H](CCC(N)=O)C(=O)NCC(=O)N[C@@H](Cc1ccc(O)cc1)C(N)=O)C(C)C)C(C)C)[C@@H](C)O` [compound 129] (H-GCRTGTCTVQRLAHQIYQFTDKDKDNVAPRSKVGPQGY-NH2; disulfide 2-7), the EC50 at hAMY3 receptor amounted to 29 pM. Also, in data set [1], the “Max ThT signal (%)” value stood at 1.400%.

Turning to `CC[C@H](C)[C@H](NC(=O)[C@H](CCC(N)=O)NC(=O)[C@H](Cc1c[nH]cn1)NC(=O)[C@H](C)NC(=O)[C@H](CC(C)C)NC(=O)[C@H](CCCNC(=N)N)NC(=O)[C@H](CCC(N)=O)NC(=O)[C@@H](NC(=O)[C@@H](NC(=O)[C@@H]1CSSC[C@H](NC(=O)CN)C(=O)N[C@@H](CCCNC(=N)N)C(=O)N[C@@H](Cc2ccccc2)C(=O)NCC(=O)N[C@@H]([C@@H](C)O)C(=O)N1)[C@@H](C)O)C(C)C)C(=O)N[C@@H](Cc1ccc(O)cc1)C(=O)N[C@@H](CCC(N)=O)C(=O)N[C@@H](Cc1ccccc1)C(=O)N[C@H](C(=O)N[C@@H](CC(=O)O)C(=O)N[C@@H](CCCCN)C(=O)N[C@@H](CC(=O)O)C(=O)N[C@@H](CCCCN)C(=O)N[C@@H](CC(=O)O)C(=O)N[C@@H](CC(N)=O)C(=O)N[C@H](C(=O)N[C@@H](C)C(=O)N1CCC[C@H]1C(=O)N[C@@H](CCCNC(=N)N)C(=O)N[C@@H](CO)C(=O)N[C@@H](CC(N)=O)C(=O)N[C@H](C(=O)N[C@@H](CO)C(=O)N1CCC[C@H]1C(=O)N[C@@H](CCC(N)=O)C(=O)NCC(=O)N[C@@H](Cc1ccc(O)cc1)C(N)=O)C(C)C)C(C)C)[C@@H](C)O` [compound 131] (H-GCRFGTCTVQRLAHQIYQFTDKDKDNVAPRSNVSPQGY-NH2; disulfide 2-7), the EC50 on hAMY3 receptor turned out to be 31 pM. Further, in data set [1], the “Max ThT signal (%)” value worked out at 6.800%.
